The values below come from ChEMBL document CHEMBL1201862, “PubChem BioAssay data set” (2004).

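Each compound was tested at five concentrations against cells in 96-well plates for 48 hours. GI50 is the concentration that inhibits growth by half.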 Active and inactive are the calls of the source. Cut-off read from the data, not from the text of the source: active = GI50 up to about 1.1 µM and inactive = higher.

Common to all, as to test: DTP human tumour cell line panel, 48 h
Assay [1] deals with SF-295.
In assay [2] the test system is KM-20L2.
For assay [3], the system named is U-251.
Assay [4] deals with HL-60.
Assay [5] relates to M14.
Assay [6] relates to SR.
Assay [7] relates to UACC-257.
Assay [8] has as its system OVCAR-4.
For assay [9], the system named is NCI-H460.
In assay [10] the test system is HCC 2998.
In assay [11] the test system is HCT-15.
The test system of assay [12] is SNB-19.
Assay [13] relates to NCI-H23.
For assay [14], the system named is OVCAR-5.
The subject of assay [15] is KM12.
For assay [16], the system named is ACHN.
For assay [17], the system named is EKVX.
In assay [18] the test system is RPMI-8226.

By GI50 is commonly meant the concentration that inhibits growth by half. As to `C/C(=N\NC(=N)N)C(CN(CC(C)C)CC(C)C)C(=O)Nc1ccc(C)cc1C` (stereo not drawn), the GI50 in assay [1] is > 100 µM (inactive); in assay [2], > 100 µM (inactive); in [3] it was > 100 µM (inactive); in [4], 91.8 µM (inactive); in [5], > 100 µM (inactive); in assay [6] it was > 100 µM (inactive). Also, the GI50 in assay [7] was > 100 µM (inactive); in assay [8], > 100 µM (inactive); in [9], > 100 µM (inactive); in assay [10] it was > 100 µM (inactive); in [11], above 100 µM; in assay [12] it was > 100 µM (inactive). Besides, the GI50 was > 100 µM (inactive) in assay [13]; > 100 µM (inactive) in assay [14]; > 100 µM (inactive) in assay [15]; > 100 µM (inactive) in assay [16]; 81.5 µM (inactive) in assay [17].
`NNC(=O)C(=O)N/N=C(\CCC(=O)Nc1ccc(Cl)cc1)Cc1nc2ccccc2s1`: the GI50 in assay [1] is 36.6 µM (inactive); in assay [2] it was 45.5 µM (inactive); in [3], 18.8 µM (inactive); in assay [4] it was 4.34 µM (inactive); in [5] it was 19.7 µM (inactive); in assay [6], 11.9 µM (inactive). In addition, the GI50 in assay [7] was 32.9 µM (inactive); in assay [18], 25.6 µM (inactive); in [9], 28 µM (inactive); in assay [10] it was 44.7 µM (inactive); in assay [11], 19.1 µM; in assay [12] it was 30.5 µM (inactive). Besides, the GI50 is 30.9 µM (inactive) in assay [13]; 33.1 µM (inactive) in assay [14]; 51.1 µM (inactive) in assay [15]; 26.1 µM (inactive) in assay [16]; 27.4 µM (inactive) in assay [17].
With `O=C1C(c2ccccc2)=C(c2ccccc2)C(c2ccc(Cc3ccc(C4=C(c5ccccc5)C(=O)C(c5ccccc5)=C4c4ccccc4)cc3)cc2)=C1c1ccccc1`, the GI50 in [1] was 69.5 µM (inactive); in [2] it was > 100 µM (inactive); in assay [3], > 100 µM (inactive); in assay [4], > 100 µM (inactive); in [6], > 100 µM (inactive); in assay [7], 64.9 µM (inactive). Besides, the GI50 in assay [18] was > 100 µM (inactive); in assay [8] it was > 100 µM (inactive); in assay [9], > 100 µM (inactive); in [11] it was above 100 µM; in [12], > 100 µM (inactive); in assay [13] it was > 100 µM (inactive). Also, the GI50 in [14], in assay [15] and in [17] was > 100 µM (inactive) throughout.
On to `Cc1ccc2nc3c(C)cc(=O)cc-3sc2c1`, for which the GI50 is 31.5 µM (inactive) in [1]; 43.5 µM (inactive) in assay [2]; 31.8 µM (inactive) in assay [3]; 2.45 µM (inactive) in [4]; 19.6 µM (inactive) in assay [5]; 19.1 µM (inactive) in assay [6]. Moreover, the GI50 in [7] was 20.2 µM (inactive); in assay [8], 16.7 µM (inactive); in assay [9], 23.4 µM (inactive); in [10] it was 26.9 µM (inactive); in assay [11], 16 µM; in [12], 38.1 µM (inactive). For the same molecule, the GI50 in assay [13] was 20.8 µM (inactive); in assay [14] it was 27.9 µM (inactive); in [15], 22.9 µM (inactive); in [16] it was 17.7 µM (inactive); in assay [17], 28.2 µM (inactive).
Take `O=C(CC1C(=O)Nc2ccccc2[S+]1[O-])Nc1ccc(Cl)cc1` (stereo not drawn): the GI50 in assay [1] is > 100 µM (inactive); in assay [2], > 100 µM (inactive); in assay [3], 35.7 µM (inactive); in assay [4], 46.9 µM (inactive); in assay [5], > 100 µM (inactive); in assay [6] it was 32.4 µM (inactive). Further, the GI50 was 69.5 µM (inactive) in assay [7]; > 100 µM (inactive) in assay [18]; 49 µM (inactive) in assay [8]; > 100 µM (inactive) in assay [9]; 79.6 µM (inactive) in [10]; above 100 µM in assay [11]. The GI50 in [12] is 93.3 µM (inactive); in assay [13], 35.2 µM (inactive); in assay [14], > 100 µM (inactive); in assay [15], > 100 µM (inactive); in [16], 79.3 µM (inactive).
